Assay: xn = mol fraction of the nth substance listed
Details: 101 kPa, Liquid

CCOS(=O)(=O)[O-].CCn1cc[n+](C)c1 [1-ethyl-3-methylimidazolium ethyl sulfate] + CC1COC(=O)O1
x2 = 0
Details	mass density [kg/m3]
278.15 K	1251.04
283.15 K	1247.5
288.15 K	1244.04
293.15 K	1240.66
298.15 K	1237.27
303.15 K	1233.89
308.15 K	1230.51

CCOS(=O)(=O)[O-].CCn1cc[n+](C)c1 [1-ethyl-3-methylimidazolium ethyl sulfate] + CC#N
mass density [kg/m3]
Details	278.15 K	283.15 K	288.15 K	293.15 K	298.15 K	303.15 K	308.15 K
x2 = 0	1251.04	1247.5	1244.04	1240.66	1237.27	1233.89	1230.51
x2 = 0.0051	1250.84	1247.29	1243.84	1240.44	1237.06	1233.68	1230.3
x2 = 0.0099	1250	1246.45	1243.01	1239.61	1236.22	1232.83	1229.45
x2 = 0.0202	1249.09	1245.54	1242.11	1238.69	1235.31	1231.91	1228.53
x2 = 0.0499	1245.66	1242.09	1238.68	1235.26	1231.85	1228.44	1225.03
x2 = 0.1001	1239.88	1236.38	1232.93	1229.48	1226.04	1222.6	1219.16
x2 = 0.1426	1236.22	1232.77	1229.28	1225.81	1222.35	1218.9	1215.45
x2 = 0.2507	1218.64	1215.07	1211.5	1207.95	1204.39	1200.86	1197.33
x2 = 0.3434	1202.08	1198.44	1194.79	1191.15	1187.54	1183.93	1180.33
x2 = 0.4592	1177.36	1173.6	1169.85	1166.12	1162.39	1158.68	1154.98
x2 = 0.5799	1140.91	1137	1133.1	1129.22	1125.35	1121.49	1117.63
x2 = 0.679	1101.24	1097.17	1093.12	1089.08	1085.03	1081	1076.97
x2 = 0.7423	1068.73	1064.52	1060.33	1056.15	1051.97	1047.8	1043.63
x2 = 0.7865	1041.05	1036.74	1032.43	1028.13	1023.83	1019.53	1015.24
x2 = 0.8539	988.5	983.97	979.43	974.91	970.37	965.84	961.31
x2 = 0.897	945.89	941.18	936.47	931.76	927.04	922.31	917.58
x2 = 0.9342	902.15	897.28	892.39	887.47	882.61	877.89	873.12
x2 = 0.9567	871.14	866.13	861.1	856.07	851.01	845.95	840.87
x2 = 0.9707	849.53	844.43	839.31	834.19	829.04	823.87	818.69
x2 = 0.9803	833.78	828.62	823.44	818.24	813.02	807.78	802.52
x2 = 0.9872	821.79	816.57	811.34	806.09	800.81	795.52	790.19
x2 = 0.9925	812.49	807.23	801.95	796.67	791.34	786	780.62
x2 = 0.9967	804.39	799.09	793.78	788.44	783.08	777.69	772.28

CCOS(=O)(=O)[O-].CCn1cc[n+](C)c1 [1-ethyl-3-methylimidazolium ethyl sulfate] + CC(C)=O
mass density [kg/m3]
Details	278.15 K	283.15 K	288.15 K	293.15 K	298.15 K	303.15 K	308.15 K
x2 = 0	1251.04	1247.5	1244.04	1240.66	1237.27	1233.89	1230.51
x2 = 0.0048	1250.35	1246.8	1243.35	1239.97	1236.57	1233.18	1229.8
x2 = 0.0098	1249.71	1246.16	1242.72	1239.31	1235.93	1232.54	1229.15
x2 = 0.015	1248.99	1245.43	1242	1238.59	1235.2	1231.8	1228.41
x2 = 0.0249	1247.95	1244.39	1240.97	1237.55	1234.16	1230.76	1227.37
x2 = 0.0399	1245.49	1241.93	1238.51	1235.1	1231.67	1228.26	1224.86
x2 = 0.06	1242.52	1238.99	1235.56	1232.12	1228.69	1225.26	1221.85
x2 = 0.0799	1239.64	1236.15	1232.7	1229.24	1225.79	1222.35	1218.92
x2 = 0.1002	1236.48	1233.02	1229.54	1226.07	1222.61	1219.16	1215.71
x2 = 0.1501	1228.75	1225.24	1221.72	1218.21	1214.71	1211.21	1207.73
x2 = 0.2066	1218.26	1214.69	1211.11	1207.54	1204	1200.46	1196.93
x2 = 0.2998	1200.04	1196.37	1192.71	1189.06	1185.43	1181.81	1178.19
x2 = 0.3999	1176.43	1172.65	1168.88	1165.13	1161.39	1157.66	1153.94
x2 = 0.5	1146.24	1142.32	1138.42	1134.53	1130.65	1126.78	1122.92
x2 = 0.6	1109.44	1105.35	1101.27	1097.2	1093.15	1089.1	1085.07
x2 = 0.7	1062.54	1058.23	1053.92	1049.61	1045.32	1041.02	1036.74
x2 = 0.8	1001.65	997.03	992.4	987.78	983.15	978.52	973.88
x2 = 0.9003	920.34	915.32	910.28	905.21	900.15	895.06	889.95
x2 = 0.95	869.49	864.22	858.92	853.61	848.26	842.89	837.49

CCOS(=O)(=O)[O-].CCn1cc[n+](C)c1 [1-ethyl-3-methylimidazolium ethyl sulfate] + CCO
mass density [kg/m3]
Details	278.15 K	283.15 K	288.15 K	293.15 K	298.15 K	303.15 K	308.15 K
x2 = 0	1251.4	1247.84	1244.39	1241.01	1237.63	1234.24	1230.87
x2 = 0.016	1249.64	1246.08	1242.65	1239.25	1235.85	1232.45	1229.05
x2 = 0.0254	1248.22	1244.65	1241.24	1237.84	1234.43	1231.03	1227.63
x2 = 0.0425	1246.12	1242.58	1239.16	1235.76	1232.34	1228.94	1225.53
x2 = 0.0877	1240.95	1237.47	1234.04	1230.59	1227.18	1223.75	1220.34
x2 = 0.1178	1235.48	1232.05	1228.59	1225.14	1221.7	1218.26	1214.84
x2 = 0.142	1231.31	1227.85	1224.38	1220.92	1217.47	1214.02	1210.59
x2 = 0.2344	1216.31	1212.79	1209.28	1205.78	1202.3	1198.83	1195.36
x2 = 0.4236	1174.57	1170.96	1167.36	1163.79	1160.21	1156.65	1153.1
x2 = 0.6005	1116.78	1113.06	1109.36	1105.67	1101.99	1098.32	1094.66
x2 = 0.7305	1055.36	1051.54	1047.72	1043.92	1040.12	1036.36	1032.55
x2 = 0.833	987.08	983.14	979.21	975.3	971.37	967.46	963.54
x2 = 0.9022	925.53	921.55	917.81	913.45	910.22	906.22	902.18
x2 = 0.9567	863.73	860.74	856.8	851.32	848.59	844.44	840.27
x2 = 0.9846	826.39	822.21	818.01	813.81	809.59	805.36	801.09
x2 = 0.9924	814.42	810.28	806.17	801.75	797.8	793.53	789.23
x2 = 0.9963	808.01	803.79	799.55	795.3	791.03	786.74	782.41

From the NIST ThermoML archive (doi:10.1021/je1002237)
